These results are taken from patent EP1285971B1, “Methods for the phenotypic and genotypic assessment of the drug sensitivity of HIV integrase variants” (Tibotec Pharmaceuticals Ltd., priority 2001, dated 2003).

Like-named read-outs stand apart in the source and are kept apart here.

For one assay, the system named is patient_146514. In words: microbe, parasite or virus in culture. The format is cell-based, HIV. The conditions noted are these: AVE 2, patient_146514, primer set 3. Here is the method: (§1) The integrase encoding sequence was amplified from either wildtype HIV-1 (IIIB) or NL4.3 virus, or HXB2D site-directed mutant viruses containing mutations in integrase (such as T66I, S153Y, M154I, or combinations thereof) (Hazuda et al., Science 2000, 287, 646-650), or patient samples. Starting from RNA, extracted from virus supernatant or plasma using the QIAamp® viral RNA extraction kit (Qiagen), cDNA was synthesized by reverse transcription (Expand TM reverse transcriptase, 30 min at 42°C) with the primer 3'EGINT10 (SEQ ID NO 11), followed by a nested PCR. The outer PCR was performed with the primers 5'EGINT1 (SEQ ID NO 1) and 3'EGINT10 (SEQ ID NO 11) (ΔR-IN-vif construct) or 5'EGINT3 (SEQ ID NO 4) and 3'EGINT10 (SEQ ID NO 11) (ΔIN construct) (Expand™ High Fidelity PCR system), and 5 µl of the outer product was used for an inner PCR with primers 5'EGINT2 (SEQ ID NO 3) and 3'EGINT11 (SEQ ID NO 12) (ΔR-IN-vif construct) or 5'EGINT4 (SEQ ID NO 5) and 3'EGINT6 (SEQ ID NO 7) (ΔIN construct). In a second protocol the outer primers were identical as described above, the inner primers are 5'EGINT5 (SEQ ID NO 6) and 3'EGINT6 (SEQ ID NO 7). The amplicons can be used for genotyping and phenotyping. Cycling conditions for both PCRs are denaturation for 3 min at 95°C, followed by 30 cycles of 1 min 90°C, 30 sec 55°C, and 2 min 72°C. A final extension was performed at 72°C for 10 min. For recombination, PCR products are purified using the QiaQuick® 96 PCR BioRobot kit (Qiagen), according to the manufacturer's protocol. If the protocol starts from DNA containing the HIV material such as proviral DNA, the reverse transcriptase step is not needed. The nested approach is also not needed when starting from proviral DNA. The obtained amplicons were sequenced using the primers: In_seq1F (SEQ ID NO 17), In_seq2F (SEQ ID NO 18), In_seq3F (SEQ ID NO 19), IN_seq1R (SEQ ID NO 20), IN_seq2R (SEQ ID NO 21), and IN_seq3R (SEQ ID NO 22).
(§2) A ΔR-IN-vif or ΔIN deletion construct was generated by site-directed mutagenesis on the template pSV40HXB2D with the primers MUT-IN1 (SEQ ID NO 13) and MUT-IN2 (ΔR-IN-vif construct) (SEQ ID NO 14) or MUT-IN3 (SEQ ID NO 15) and MUT-IN4 (SEQ ID NO 16) (ΔIN construct) (protocol Site-directed mutagenesis kit, Stratagene). After DpnI digestion for removal of the methylated template DNA, the construct was digested with SmaI and ligated to circulize the plasmid. The plasmid was transformed into competent cells such as Top10 cells, and colonies were screened for the presence of the deletion construct. The IN-deletion construct was checked by sequence analysis with primers 5'EGINT1 (SEQ ID NO 1) or […] and 3'EGINT10 (SEQ ID NO 11) or 3'EGINT11 (SEQ ID NO 12). For use in recombination experiments, large-scale plasmid DNA preparations were linearized by SmaI digestion and recombined with PCR amplified integrase genes from wild type, mutant, or patient viruses. The plasmid containing the integrase deletion (ΔIN) has been deposited pSV40HXB2D-ΔIN. The sequence of said plasmid is 14377 nucleotides long. The ΔR-IN-vif deletion construct is 13975 nucleotides long. The pSV40HXB2D-ΔIN was deposited at the Belgian Coordinated Collections of Micro-Organisms located at the Universiteit Gent - Laboratorium voor Moleculaire Biologie on August 5, 2002 and the accession number is LMBP 4574.
(§3) Recombinant virus was produced by co-transfection by electroporation of the SmaI-linearized IN-deletion construct and the integrase amplicon into MT4 cells or MT4 cells equipped with an LTR driven reporter gene construct. Production of recombinant virus was evaluated by scoring the cytopathogenic effect (CPE) that is induced by HIV-infection of MT4 cells or by the LTR-driven reporter signal induced by HIV infection in MT4 reporter cells.

In a further assay the test system is NL 4-3. Briefly: microbe, parasite or virus in culture. The format is cell-based, HIV-1. The conditions noted are these: for fold change: fold change in EC50; for EC50: read-out: EC 50. Here is the method:
as §1, §2, §3

The test system of a further assay is WT III B. Briefly: microbe, parasite or virus in culture. The conditions noted are these: AVE 5, WT III B, primer set 4. The format is cell-based, HIV-1. The procedure:
as §1, §2, §3

The next assay has as its system pHXB2D control. Briefly: Antiviral experiment with control clone, transfected directly without recombination. The format is cell-based, HIV. The conditions noted are these: AVE 6, pHXB2D control, no recombination. Here is the method: Recombinant virus was produced by co-transfection by electroporation of the SmaI-linearized IN-deletion construct and the integrase amplicon into MT4 cells or MT4 cells equipped with an LTR driven reporter gene construct. Production of recombinant virus was evaluated by scoring the cytopathogenic effect (CPE) that is induced by HIV-infection of MT4 cells or by the LTR-driven reporter signal induced by HIV infection in MT4 reporter cells. Green fluorescent protein was used as the reporter signal. Viruses are harvested and titrated at maximum CPE. For recombination the deletion construct pSV40HXB2D-ΔIN was used. Recombination experiments were performed with amplicon from wildtype HIV IIIB and NL4.3, and patient sample 146514 generated by both primer sets. For each recombination 2 µg amplicon was co-transfected with 10 µg SmaI-digested pSV40HXB2D-ΔIN by electroporation into MT4-LTR-EGFP cells. Virus stocks were titrated and tested in an antiviral experiment on a reference panel including nucleoside reverse transcriptase inhibitors (NRTI), non- nucleoside reverse transcriptase inhibitors (NNRTI), protein inhibitor (PR), entry and integrase (IN) inhibitors (Table 2). Recombination was checked by nucleic acid sequence analysis using protocols known to the person skilled in the art. Sequencing primers which can be used are In_seq1F (SEQ ID NO 17), In_seq2F (SEQ ID NO 18), In_seq3F (SEQ ID NO 19), IN_seq1R (SEQ ID NO 20), IN_seq2R (SEQ ID NO 21), and IN_seq3R (SEQ ID NO 22). The recombinant virus was evaluated in an anti-viral assay with a panel of reference compounds including nucleoside RT inhibitors (NRTI) Zidovudine (AZT) Lamivudine (3TC), Didanosine (DDI), non-nucleoside RT inhibitors (NNRTI) Nevirapine (NVP), 4-[[6-amino-5-bromo-2-[(4-cyanophenyl)amino]-4-pyrimidinyl]oxy]-3,5-dimethyl-benzonitrile also referred to as compound 1, 4-[[6-amino-5-bromo-2-[(4-cyanophenyl)amino]-4-pyrimidinyl]oxy]-3,5-dimethyl-Benzonitrile, also referred to as compound 2 protease inhibitors (PR) Saquinavir (SQV), Amprenavir (APV), Indinavir (IDV), [[…]-3-[[(4-aminophenyl)sulfonyl](2-methylpropyl)amino]-2-hydroxy-1-(phenylmethyl)-propyl]-, (3R,3aS,6aR)-hexahydrofuro[2,3-b]furan-3-yl ester carbamic acid also referred to as compound 3, entry-inhibitors (Entry)(AMD3100, DS5000, ATA), and integrase inhibitor (IN) 2-(1-methylethyloxy)-α,γ dioxo-5-(phenylmethyl)-benzenebutanoic acid also referred to as compound 4. […] AVE means antiviral experiment. Type means the type of inhibitor investigated. The fold change is the fold change in EC50. WT III B means that a portion of the wild type IIIB strain has been amplified and used in the antiviral experiment, including transfection and generation of recombinant virus. NL 4-3 means the integrase gene of this laboratory strain has been amplified and subsequently used for the antiviral experiment. […] No recombination has been effected using this HIV clone. pHXB2D has been used directly for transfection and antiviral experiment. Primer set 3 consist of outer primers 5'EGINT3 (SEQ ID NO 4) and 3'EGINT10 (SEQ ID NO 11), and inner primers 5'EGINT4 (SEQ ID NO 5) and 3'EGINT6 (SEQ ID NO 7). Primer set 4 consist of outer primers 5'EGINT3 (SEQ ID NO 4) and 3'EGINT10 (SEQ ID NO 11), and inner primers 5'EGINT5 […] and 3'EGINT6 (SEQ ID NO 7). Other suitable integrase inhibitors include L-731,988, diketo-acids and S-1360.

As to `CC(C)CN(C[C@@H](O)[C@H](Cc1ccccc1)NC(=O)O[C@H]1CO[C@H]2OCC[C@H]21)S(=O)(=O)c1ccc(N)cc1` [Compound 3, [(11S,2R)-3-[[(4-aminophenyl)sulfonyl](2-methylpropyl)amino]-2-hydroxy-1-(phenylmethyl)-propyl]-, (3R,3aS,6aR)-hexahydrofuro[2,3-b]furan-3-yl ester carbamic acid], the fold change is 2,2 in the assay with patient_146514 (fold change in EC50); 0,5 with NL 4-3 (AVE 1, NL 4-3, primer set 3); 1,5 in the assay with NL 4-3 (AVE 4, NL4-3, primer set 4); 0,9 in the assay on WT III B (fold change in EC50); 1,0 in the assay on pHXB2D control (fold change in EC50). The EC50 is 15.6 nM with patient_146514 (read-out: EC 50); 3.7 nM in the assay with NL 4-3 (AVE 1, NL 4-3, primer set 3); 10.9 nM in the assay with NL 4-3 (AVE 4, NL4-3, primer set 4); 6.3 nM in the assay with WT III B (read-out: EC 50); 7.1 nM with pHXB2D control.
